The results in this text go back to US20230312651A1, “Cyclic Peptide, Peptide Complex, and Drug Composition Containing Said Cyclic Peptide and/or Said Peptide Complex” (The University of Tokyo, priority 2020, published 2023).

Entries after “also recorded” stand apart in the source; their conditions may differ. Starred links: 1 amine or outer side, 2 acyl side, 3 side chain; linkers in the order of their positions; H or OH if unused. Positions of bridges follow the written chain, without caps; N, C: chain ends. Non-standard residues stand in square brackets, D forms with d. Chains are numbered I, II in the order given. NH(CH2CH2O)6CH2CO = O=C(COCCOCCOCCOCCOCCOCCN[*:1])[*:2]; Dap = NC[C@H](N)C(=O)O

The subject of assay [1] is Erk½. Briefly: Western blot of phosphorylated Erk½ in primary hippocampal neurons. The conditions noted are these: ANA-12 100 µM added 30 minutes before 1 nM DiTrbL3; p<0.01. Format: cell-based, mouse. How it is done:
(§1) After washing with 0.1 M PBS twice, cells were lysed in a radio-immunoprecipitation assay (RIPA) buffer containing 50 mM Tris-HCI (pH 7.4), 150 mM NaCl, 2 mM EDTA, 1% Nonidet P-40, 0.5% Na-deoxycholate, 0.1% SDS, 50 mM NaF, 0.2 mM Na3VO4, 10 µg/mL aprotinin, 10 µg/mL leupeptin, and 1 mM phenylmethylsulfonyl fluoride on ice for 30 minutes. After ultrasonic treatment and centrifugation at 20,000 ×g for 30 minutes, the supernatant was subjected to SDS-PAGE. Protein amount was quantified using Bicinchoninic Acid Kit (BCA-1, Sigma).
(§2) The cell lysate (protein amount: 20 µg in P-TrkB, 10 µg in TrkB, and 5 µg in Akt and Erk) was separated using 8% polyacrylamide gel and transferred to a polyvinylidene difluoride membrane (Merck Millipore, Massachusetts, USA). […]
(§3) Finally, after the resulting membrane was washed with TBST, an immune-positive bands were detected by a chemiluminescence method using a Luminata Crescendo HPR substrate (Merck Millipore). The relative phosphorylation level of each kinase was calculated as a ratio of phosphorylated kinase/all kinases.
In general terms: A western blot detects proteins with antibodies after separation by electrophoresis.

Assay [2] concerns 40 RTKs (receptor tyrosine kinases). Nature of the assay: Phospho-RTK array evaluation (off-target activity). Format: cell-based, mouse. The following applies: ANA-12 100 µM added 30 minutes before DiTrbL3 1 nM. The procedure:
Comprehensive study of the phosphorylated tyrosine kinase receptor was conducted using a phospho-RTK array in accordance with the manufacturer’s protocol (Proteome Profiler mouse Phospho-RTK Array Kit, ARY014, R&D Systems). The phosphorylation level was evaluated by pixel density and quantified by Image J Software.

Assay [3] relates to Akt. Briefly: Western blot of phosphorylated Akt (S473) in primary hippocampal neurons. The conditions noted are these: ANA-12 100 µM added 30 minutes before 1 nM DiTrbL3; p<0.05. Format: cell-based, mouse. The procedure:
as §1, §2, §3

For assay [4], the target named is extracellular domain of hTrkA (Homo sapiens, UniProt P04629). Briefly: SPR binding kinetics (Biacore T200), hTrkA. Also noted: the extracellular domain of hTrkA, hTrkC, and hTrkB. The following applies: Homodimer (peptide complex), 1:1 binding model. The procedure:
(§4) With respect to the binding kinetics (binding affinity (dissociation constant) KD) of the cyclic peptides towards the extracellular domain of hTrkA, hTrkC, and hTrkB (which will hereinafter be called “hTrkA-C proteins”, collectively) immobilized on a sensor chip via a His6-tag, quantitative measurements making use of surface plasmon resonance (SPR) were carried out to evaluate the binding intensity and selectivity of the cyclic peptide to hTrkB, compared with that to hTrkA and hTrkC.
(§5) The binding kinetics of each peptide towards the hTrkA-C proteins were determined using Biacore T200 (GE Healthcare). The buffer used was HBS-P+ (10 mM HEPES, 150 mM NaCl, and 0.05 vol% surfactant P20, pH 7.4) containing 0.1 vol% DMSO and 1 mM b-dodecyl-maltoside. 100 nM hTrkA-C proteins were immobilized on a Ni^2+ treated NTA chip in accordance with the manufacturer’s instructions (baseline response 1000 to 3000 refraction units). Peptides were injected as an analyte at a flow rate of […] and binding kinetics was modelled using a 1:1 binding model.
(In general: SPR reads the build-up and loss of mass on a sensor chip optically.)

Assay [5] deals with T1, extracellular domain of hTrkC (Homo sapiens, UniProt Q16288).
T1 construct: the extracellular domain of hTrkA, hTrkC, and hTrkB
Briefly: SPR binding kinetics (Biacore T200), hTrkC. The following applies: Homodimer (peptide complex), 1:1 binding model. How it is done:
as §4, §5

T1 sequence (Q16288 32-429 limits assumed): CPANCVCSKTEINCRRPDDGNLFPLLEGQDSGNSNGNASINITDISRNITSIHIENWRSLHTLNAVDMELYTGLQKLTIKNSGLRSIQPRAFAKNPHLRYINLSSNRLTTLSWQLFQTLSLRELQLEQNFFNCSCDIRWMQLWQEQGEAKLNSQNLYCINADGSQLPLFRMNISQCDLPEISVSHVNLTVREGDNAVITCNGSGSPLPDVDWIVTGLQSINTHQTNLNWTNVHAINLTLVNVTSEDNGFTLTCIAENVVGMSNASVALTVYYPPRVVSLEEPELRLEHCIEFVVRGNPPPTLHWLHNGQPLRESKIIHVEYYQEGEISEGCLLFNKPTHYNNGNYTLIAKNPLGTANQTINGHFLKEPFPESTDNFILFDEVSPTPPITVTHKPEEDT
Chain of extracellular domain of hTrkA (P04629 33-423 limits assumed): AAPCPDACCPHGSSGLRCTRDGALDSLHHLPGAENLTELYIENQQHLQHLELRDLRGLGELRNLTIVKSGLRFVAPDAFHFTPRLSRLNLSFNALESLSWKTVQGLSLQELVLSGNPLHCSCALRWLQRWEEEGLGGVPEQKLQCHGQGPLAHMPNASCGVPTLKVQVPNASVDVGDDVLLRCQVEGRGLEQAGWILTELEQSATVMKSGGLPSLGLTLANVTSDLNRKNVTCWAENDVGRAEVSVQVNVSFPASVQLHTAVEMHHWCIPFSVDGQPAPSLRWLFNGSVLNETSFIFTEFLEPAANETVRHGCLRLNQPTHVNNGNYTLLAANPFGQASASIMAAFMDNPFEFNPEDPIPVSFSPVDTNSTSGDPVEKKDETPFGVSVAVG

As for `O=C(Nc1ccccc1C(=O)NC1CCCCNC1=O)c1cc2ccccc2s1` (centres unmarked) [ANA-12, reference compound], the “phosphorylation of Erk½ induced by DiTrbL3” value in assay [1] is on record as “the phosphorylation activity decreased; also recorded: suppressed”. The “TrkB phosphorylation signal induced by DiTrbL3, RTK array and densitometric analysis” value in assay [2] is listed as “reduction in TrkB phosphorylation signal”. Besides, the “phosphorylation of Akt induced by DiTrbL3” value in assay [3] is given as “the phosphorylation activity decreased; also recorded: suppressed”.

For the compound “I: {CH2CO}-YRHNSYEASAFWCGSGSGS[NH(CH2CH2O)6CH2CO][Dap]-NH2 / II: {CH2CO}-YRHNSYEASAFWCGSGSGS[NH(CH2CH2O)6CH2CO] (amide I:21-II:C; thioether I:N-I:13, II:N-II:13) [DiTrbL1]”, in assay [4], the “binding affinity KD, TrkA” value is reported as “N.B”. For the same compound, the “binding affinity KD, TrkC” value in assay [5] is “N.B”.
